Measurements taken from paper PMC11718441, “Bis-3-chloropiperidines: a novel motif for anthelmintic drug design” (RSC Advances, 2025).
Converted amounts (≈) assume the structure as drawn. Like-named read-outs stand apart in the source and are kept apart here.

Experiments:
[1] = tested on: Septoria tritici MUCL45408; test: Minimum inhibitory concentration (MIC), S. tritici (ATP quantification); assay type: cell-based; details: Zymoseptoria tritici, read-out: MIC St
Procedure: (§1) The minimum inhibitory concentration (MIC) of the synthesized compounds was initially determined against three microbial indicator strains (Escherichia coli ATCC35218, […] ATCC33592, Septoria tritici MUCL45408). […]
(§2) 2. Microbial and parasitological studies
(§3) The minimum inhibitory concentration (MIC) of the synthesized compounds was determined against three microbial indicator strains (E. coli ATCC35218, S. aureus ATCC33592 and S. tritici MUCL45408) as previously described.1,2 All samples were dissolved in DMSO and tested in triplicate. Briefly, a pre-culture of E. coli and S. aureus was prepared by incubating the strains in cation adjusted Mueller Hinton 2 broth (Becton Dickinson, Sparks, NV, USA) at 37°C and 180 rpm overnight. The cell density of adjusted to 5 × 10^5 cells/mL before assays were incubated at 37 °C, 180 rpm and 85% rH. Three distinct dilution series of standard antibiotics (gentamicin, rifampicin, and tetracycline) were used as positive controls on each assay plate. Inoculated medium without test compound or positive control was used as negative control.
Medium background was averaged from 5 replicates. The turbidity of each well was measured with a microplate spectrophotometer at 600 nm (LUMIstar® Omega, BMG Labtech) and growth inhibition was calculated relative to the absorption of the controls. For S. tritici MUCL45408 inoculated at a density of 1 × 10^5 cells/mL in potato […]
dextrose medium. Septoria assay plates were incubated for 4 days at 25 °C, 180 rpm and 85% rH. Tebuconazole, amphotericin B, and nystatin were used as positive controls. Cell viability was evaluated via ATP quantification (BacTiter-Glo™, Promega GmbH, Walldorf, Germany) according to the manufacturer’s instructions. […]

[2] = tested on: S. aureus ATCC33592; test: microbe, parasite or virus in culture; assay type: cell-based; details: Staphylococcus aureus, ATCC33592, read-out: MIC Sa
Procedure: as §1, §2
as §3, with “and tetracycline) were used as positive controls on each assay plate. Inoculated medium without test compound or positive control was used as negative control.” left out
(§4) medium without test compound or positive control was used as negative control.
(§5) Medium background was averaged from 5 replicates. The turbidity of each well was […]

[3] = tested on: Escherichia coli ATCC35218; test: microbe, parasite or virus in culture; assay type: cell-based; details: ATCC35218, read-out: MIC Ec
Procedure: as §1, §2
as §3, with “and tetracycline) were used as positive controls on each assay plate. Inoculated medium without test compound or positive control was used as negative control.” left out
as §4, §5

[4] = tested on: MDCK II cells; test: In vitro cytotoxicity, CellTiter-Glo, MDCK II cells; details: 100 μM; for MDCKII cytotoxicity: 48 h, cell viability less than 80% relative to DMSO control = cytotoxic
[5] = tested on: C. elegans N2; test: whole plant or invertebrate; assay type: cell-based, Caenorhabditis elegans; details: Caenorhabditis elegans, 48 h, read-out: MMIC N2
Description: (§6) The cuticle of C. elegans strain DC19 is known to be more permeable for small molecules compared to the wildtype N2.[30] DC19 is thereby considered an informative drug-sensitive test organism. In our assays, we determined the minimum mobility inhibitory concentration (MMIC) as a proxy for anthelmintic activity. […] In contrast, MMICs of some small molecule anthelmintics such as albendazole, mebendazole or PF-1022A were lower for DC19 (Fig. S1 ^†). […]
(§7) 2.2 In vitro tests against Caenorhabditis Elegans
(§8) The minimal motility inhibitory concentration (MMIC) of compounds 1-22 against C. elegans was determined as described before.3 Both strains, C. elegans N2 and DC19 were treated identically. Briefly, pre-cultures of C.elegans were kept on NGM agar plates infused with auxotrophic E.coli OP50 as food source.4 After 4 days the plates contained sufficient gravid worms, respectively. Worms were washed from the plates with M9 buffer using wide bore pipette tips. Egg preparation was carried out by treating the harvested worms with an alkaline hypochlorite solution (5 M NaOH + 5 % NaOCl 1:2) in polypropylene tubes. Larvae and adult […]
(§9) We carried out 3 washing steps (M9 buffer) to remove carry-over hypochlorite solution. Subsequently, the eggs were incubated overnight in NGM broth on a rotator to yield synchronized hatched L1/L2 larvae. The larvae solution was adjusted to 100 worms/mL and supplemented with cholesterol (5 µg/mL), carbenicillin (25 µg/mL) and E.coli OP50 (0.5%). This assay solution was distributed into 96 well plates and incubated with a dilution series of compounds 1-22 (64-0.5 µg/mL). An additional eight-point dilution series of ivermecin (40 – 0.3 ng/mL) was used as positive control on each assay plate. Solvent background was controlled by supplementation of pure DMSO without any compound. Assays were incubated for 2 days at room temperature. Finally, a cell imaging multimode reader (Cytation™ 5) was used to record short videos (1.5 seconds) of each individual test well. The videos were used to evaluate the worm motility.

[6] = tested on: C. elegans DC19; test: whole plant or invertebrate; assay type: cell-based, Caenorhabditis elegans; details: Caenorhabditis elegans, 48 h, read-out: MMIC DC19
Description: as §6, §7, §8, §9

[7] = tested on: Schistosoma mansoni; test: In vitro tests against Schistosoma mansoni (vitality parameters of adult worm pairs); assay type: cell-based; details: for activity against S. mansoni (100% effect strength in one parameter within 7 days = active): 10 or 20 μM; for motility score: score 3 normal motility to 0 dead, paragraph on 20 μM
Procedure: Subsequently, we tested whether compounds with nematocidal activity display a broader activity also against parasitic flatworms. To this end, in vitro tests against the blood fluke S. mansoni were conducted (Fig. 4). The worms were incubated in presence of 10 and 20 μM of compounds 1–22 and phenotypic vitality parameters (separation of worm pairs, detachment of suckers from the bottom of the well and weakening of body movements) were assessed as previously described.[31] Compounds reaching 100% effect strength in one of the parameters within 7 days were considered active. Reduction of motility is considered most relevant for antischistosomal drug candidates.[32] In addition, loss of sucker activity would make parasites drifting off from their host habitat (mesenteric veins) and with pair separation, the production of pathology-causing eggs eventually ceases.[33] […] For some molecular targets e.g. glutamate and GABA chloride channels (ivermecin, abamectin) and β-tubulin (albendazole, mebendazole) the C. elegans assays results were transferable to Schistosoma, while for others e.g. acetylcholin mimetic (levamisole) the C. elegans MMIC was not predicative (Fig. S1 ^†).
2.2 Parasitological studies
Animal experiments were performed in accordance with Directive 2010/63/EU on the protection of animals used for scientific purposes and the German Animal Welfare Act. The experiments were approved by the Regional Council (Regierungspraesidium) Giessen (V54 – […]
A Liberian strain of S. mansoni was maintained in the freshwater snail Biomphalaria glabrata as intermediate host and Syrian hamsters (Mesocricetus auratus) as final host (Janvier Labs, France).5,6 Hamsters were infected at 8 weeks of age with 1,750 cercariae by using the paddling method.7 Adult worms were collected at 46 days p.i. by hepatoportal perfusion and cultured in M199 medium (Sigma-Aldrich, Germany) supplemented with 10% Newborn Calf Serum (NCS, Sigma-Aldrich), 1% 1 M HEPES (ThermoFisher Scientific, USA) and 1% ABAM solution (10,000 units/ml penicillin, 10 mg/ml streptomycin and […] amphotericin B; Sigma-Aldrich, Germany) at 37 °C, 5% CO2 and humidified atmosphere.
2.2.3. In vitro tests against Schistosoma mansoni
Test compounds were added at 10 µM or 20 µM in supplemented M199 medium to schistosomes (5 worm pairs per replicate) followed by a 7 d in vitro culture. Worms receiving the solvent DMSO at equal dilution served as negative control. The following vitality parameters were assessed every 24 h by bright field microscopy using a Leica DM IL inverted microscope and x2.5 objective lens: separation of worm pairs into male and female worms; detachment of suckers from the bottom; and weakening of body movements. Worm motility was scored as described previously, 8 with the scores 3 (normal motility), 2 (reduced motility), 1 (minimal and sporadic movements), 0 (no movements within 20 sec; dead worms). An average score of all worms per well was calculated to obtain a motility score. An average motility score of 0, separation of all pairs or detachment of all worms per well was considered

[8] = tested on: C. elegans strains N2 and DC19; test: MMIC against C. elegans, strains N2 and DC19 reported together or strain not stated; assay type: cell-based; details: Caenorhabditis elegans, 48 h, C. elegans, read-out: MMIC N2 and DC19
Description: as §6, §7, §8, §9

[9] = 96 h, S. tritici MUCL45408, 4 days

| Structure (SMILES) | MIC [1, 9] [µg/mL] | MIC [2] [µg/mL] | MIC [3] [µg/mL] | MDCKII cytotoxicity [4] | minimal effective concentration ([5]; C. elegans N2, 2 days) [µg/mL] | minimal effective concentration ([6]; C. elegans DC19, 2 days) [µg/mL] | sucker detachment of Schistosoma worm pairs ([7]; 10 μM) | activity against S. mansoni (100% effect strength in one parameter within 7 days = active) [7] | motility score [7] | minimal effective concentration [8] [µg/mL] | phenotypic changes / vitality parameters of Schistosoma ([7]; up to 20 μM, in comparison to the untreated control) | MIC ([1]; MUCL45408, 96 h) [µg/mL] | minimal effective concentration [5] [µg/mL] | minimal effective concentration [6] [µg/mL] | cytotoxicity against MDCK II (in words) [4] |
| --- | --- | --- | --- | --- | --- | --- | --- | --- | --- | --- | --- | --- | --- | --- | --- |
| Cl[C@@H]1CCCN(Cc2ccccc2)C1 [Compound 20] | > 64 | > 64 | > 64 | − (“−” (not toxic)) | > 64 | > 64 |  |  |  |  |  |  |  |  |  |
| CC1(C)CC(Cl)CN(CCCC[C@@H](C(=O)OCCc2ccccc2)N2CC(Cl)CC(C)(C)C2)C1 (stereo partly drawn) [Compound 12] | > 64 | > 64 | > 64 |  |  | 16 | full sucker detachment | showed an effect on S. mansoni | 1–1.2 | < 20 |  |  |  |  |  |
| CCCCN1CC(Cl)CC2(CC2)C1 (stereo not drawn) [Compound 17] | > 64 | > 64 | > 64 | − (“−” (not toxic)) | > 64 | > 64 |  |  |  |  |  |  |  |  |  |
| CC1(C)CC(Cl)CN(Cc2ccccc2CN2CC(Cl)CC(C)(C)C2)C1 (stereo not drawn) [Compound 8] |  | > 64 | > 64 |  | 8 |  |  |  |  | < 20 | did not inflict any phenotypic changes |  |  |  |  |
| CCCCN1CC(Cl)CC(C)(C)C1 (stereo not drawn) [Compound 16] |  | > 64 | > 64 | − (“−” (not toxic)) |  |  |  |  |  |  |  | > 64 | > 64 | > 64 |  |
| Cl[C@H]1CCCN(Cc2ccccc2)C1 [Compound 19] | > 64 | > 64 | > 64 | − (“−” (not toxic)) | > 64 | > 64 |  |  |  |  |  |  |  |  |  |
| Cc1cc(CN2CC(Cl)CC(C)(C)C2)cc(CN2CC(Cl)CC(C)(C)C2)c1 (stereo not drawn) [Compound 7] | > 64 | > 64 | > 64 |  |  | 16 |  | showed an effect on S. mansoni |  | < 20 |  |  |  |  |  |
| COc1cc(CN2CC(O)CC(C)(C)C2)cc(CN2CC(O)CC(C)(C)C2)c1 (stereo not drawn) [Compound 22] | > 64 | > 64 | > 64 | − (“−” (not toxic)) | > 64 | > 64 |  |  |  |  |  |  |  |  |  |
| CC1(C)CC(Cl)CN(Cc2ccccc2)C1 (stereo not drawn) [Compound 18] |  | > 64 | > 64 | + (“+” (toxic)) |  |  |  |  |  |  |  | > 64 | > 64 | 32 |  |
| CC1(C)CC(Cl)CN([C@H]2CC[C@H](N3CC(Cl)CC(C)(C)C3)CC2)C1 (stereo partly drawn) [Compound 10] | > 64 | > 64 | > 64 |  | > 64 | > 64 |  |  |  | ≥ 64 |  |  |  |  |  |
| CC1(C)CC(Cl)CN(Cc2cccc(CN3CC(Cl)CC(C)(C)C3)c2)C1 (stereo not drawn) [Compound 1] |  | > 64 | > 64 | + (“+” (toxic)) |  |  |  | Schistosoma-specific | 1–1.2 |  |  | 64 (≈ 161 µM) | 64 |  | cytotoxic |
